Patent US10660900B2 (priority 2014, dated 2020)
Where “and” joins values, the source holds several entries; their conditions need not be identical. Equal values may be shown once. Read-outs that look alike come from different tables or passages of the source.

Legend:
human OPRK = test: biochemical; format: binding
human OPRM [1] = molecular target: T1, human OPRM (Homo sapiens, UniProt P35372); parameters: expressed in transfected cells; host or cells: CHO-K1 (cell line provided by Dr. Toll, Torrey Pines Institute); membranes prepared in house; details: cited from earlier work
human OPRM [2] = molecular target: T1, human OPRM; parameters: expressed in transfected cells; host or cells: CHO-K1 (cell line provided by Dr. Toll, Torrey Pines Institute); membranes prepared in house; details: cited from earlier work; remark: listed apart in the source
human OPRM [3] = molecular target: T1, human OPRM; test: biochemical; format: binding; parameters: expressed in transfected cells; host or cells: CHO-K1 (cell line provided by Dr. Toll, Torrey Pines Institute); membranes prepared in house; details: Ki
human OPRM [4] = molecular target: T1, human OPRM; test: biochemical; parameters: expressed in transfected cells; host or cells: CHO-K1 (cell line provided by Dr. Toll, Torrey Pines Institute); membranes prepared in house; details: for Emax: read-out: Efficacy (Emax)
calf OPRM = calf OPRM (Bos taurus, UniProt P79350); details: cited from earlier work
calf OPRK = calf OPRK (Bos taurus, UniProt Q2KIP6); details: calf receptor; literature; cited from earlier work
OPRK [5] = molecular target: T2, OPRK (Homo sapiens, UniProt P41145); test: biochemical; format: binding; parameters: expressed in transfected cells; host or cells: CHO-K1; details: Ki
OPRK [6] = molecular target: T2, OPRK; test: biochemical; parameters: expressed in transfected cells; host or cells: CHO-K1; details: for Emax: read-out: Efficacy (Emax)
[7] = molecular target: opioid receptor delta (OPRD) (Bos taurus, UniProt F1N083); details: printed in the SEM column; literature; cited from earlier work
OPRK [8] = molecular target: T2, OPRK; test: cell-based; parameters: host or cells: CHO-K1
[9] = Single ascending oral dose pharmacokinetics of noribogaine in healthy volunteers (plasma and urine, LCMSMS); details: for AUC0-216 / AUC0-∞ / Cmax / Tmax / t1/2: mean (SD), n = 6
human OPRM [10] = molecular target: T1, human OPRM; format: cell-based; parameters: host or cells: CHO-K1
[11] = from literature (or literature/this work) values
[12] = 30 mg single oral noribogaine, plasma
[13] = 60 mg single oral noribogaine, plasma

Sequence of calf OPRM (P79350 whole entry): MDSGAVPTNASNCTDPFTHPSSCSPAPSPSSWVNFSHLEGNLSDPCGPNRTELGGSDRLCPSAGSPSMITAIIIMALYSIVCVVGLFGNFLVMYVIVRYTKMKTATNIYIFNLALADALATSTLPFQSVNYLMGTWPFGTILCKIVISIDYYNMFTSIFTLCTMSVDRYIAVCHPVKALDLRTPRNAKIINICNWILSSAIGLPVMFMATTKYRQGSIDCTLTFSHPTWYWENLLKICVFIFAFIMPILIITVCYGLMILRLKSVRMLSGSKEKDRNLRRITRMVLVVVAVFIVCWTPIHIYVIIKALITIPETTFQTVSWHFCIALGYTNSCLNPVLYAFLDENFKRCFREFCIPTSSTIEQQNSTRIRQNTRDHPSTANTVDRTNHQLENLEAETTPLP
T2 sequence (P41145 whole entry): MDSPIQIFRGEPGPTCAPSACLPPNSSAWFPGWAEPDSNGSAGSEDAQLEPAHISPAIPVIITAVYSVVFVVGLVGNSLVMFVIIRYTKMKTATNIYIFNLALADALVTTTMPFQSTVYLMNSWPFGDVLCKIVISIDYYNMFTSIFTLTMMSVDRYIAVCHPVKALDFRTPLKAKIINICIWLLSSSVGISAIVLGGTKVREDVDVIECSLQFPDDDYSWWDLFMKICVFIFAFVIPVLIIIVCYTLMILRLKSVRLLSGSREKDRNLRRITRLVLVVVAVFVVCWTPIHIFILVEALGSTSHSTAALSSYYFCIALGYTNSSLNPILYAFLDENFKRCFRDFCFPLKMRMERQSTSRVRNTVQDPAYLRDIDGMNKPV
T1 sequence (P35372 whole entry): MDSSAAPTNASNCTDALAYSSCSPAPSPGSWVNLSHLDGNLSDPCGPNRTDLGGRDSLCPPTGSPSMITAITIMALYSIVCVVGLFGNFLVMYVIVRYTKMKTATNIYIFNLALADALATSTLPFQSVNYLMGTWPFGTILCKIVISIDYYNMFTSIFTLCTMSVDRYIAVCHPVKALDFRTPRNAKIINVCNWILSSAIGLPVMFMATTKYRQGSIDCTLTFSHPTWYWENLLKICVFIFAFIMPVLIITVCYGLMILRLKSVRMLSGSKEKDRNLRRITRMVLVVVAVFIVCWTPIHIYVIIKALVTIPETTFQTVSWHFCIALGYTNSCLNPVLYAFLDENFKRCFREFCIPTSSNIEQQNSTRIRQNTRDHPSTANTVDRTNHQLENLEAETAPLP
Sequence of calf OPRK (Q2KIP6 whole entry): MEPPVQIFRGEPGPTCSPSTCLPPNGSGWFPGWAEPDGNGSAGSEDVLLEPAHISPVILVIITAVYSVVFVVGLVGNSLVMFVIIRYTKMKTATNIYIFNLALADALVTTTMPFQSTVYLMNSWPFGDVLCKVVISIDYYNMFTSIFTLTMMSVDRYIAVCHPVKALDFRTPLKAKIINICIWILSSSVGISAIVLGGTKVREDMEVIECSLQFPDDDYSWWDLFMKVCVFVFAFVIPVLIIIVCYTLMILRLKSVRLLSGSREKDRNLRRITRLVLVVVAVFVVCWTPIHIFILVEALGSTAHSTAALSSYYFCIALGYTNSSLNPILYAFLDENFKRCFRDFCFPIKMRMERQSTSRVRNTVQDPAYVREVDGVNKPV
Sequence of opioid receptor delta (OPRD) (F1N083 1-372): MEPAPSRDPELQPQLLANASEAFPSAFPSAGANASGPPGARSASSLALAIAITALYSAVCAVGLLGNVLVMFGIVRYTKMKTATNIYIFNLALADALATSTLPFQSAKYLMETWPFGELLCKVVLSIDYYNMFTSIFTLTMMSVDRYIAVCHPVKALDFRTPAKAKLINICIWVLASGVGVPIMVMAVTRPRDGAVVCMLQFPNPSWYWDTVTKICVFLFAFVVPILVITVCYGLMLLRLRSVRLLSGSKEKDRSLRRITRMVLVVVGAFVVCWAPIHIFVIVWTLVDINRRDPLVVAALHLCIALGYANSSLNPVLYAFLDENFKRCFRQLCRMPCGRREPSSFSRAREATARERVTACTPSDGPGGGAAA

Compound: NC(N)=Nc1ccc2c3c([nH]c2c1)[C@@H]1Oc2c(O)ccc4c2[C@@]12CCN(CC1CC1)[C@H](C4)[C@]2(O)C3 [6′GNTI, 6′-guanidinonaltrindole]
- ΔpKi = pKi(OPRK) − pKi(OPRM), OPRK Specificity (human OPRK; [11]): 1.84
- EC50 (human OPRM [1]; activation, literature): > 1 µM
- Efficacy (human OPRM [1]; activation, literature): 0~ %
- Ki (human OPRM [2]): 0.082 µM
- pKi (human OPRM [2]): 7.1

Compound: COCCC1CC2CN3CCc4c([nH]c5ccccc45)C(C(=O)OC)(C2)C13 (stereo not shown) [18-MC, 18-methoxycoronaridine, reference compound]
- Ki (human OPRM [3]): 2.26 µM and 2.36 µM
- stimulation of the OPRM G-protein pathway (human OPRM [4]): failed to stimulate the OPRM G-protein pathway
- Emax (human OPRM [4]): < 5%
- ΔpKi = pKi(OPRK) − pKi(OPRM), OPRK Specificity (human OPRK; [11]): −0.7
- ΔpKi = pKi(OPRK) − pKi(OPRM), OPRK Specificity (human OPRK; from values of this work): 0.1
- affinity at human OPRK versus OPRM (human OPRK; in these assays): equi-affine to both human OPRK and OPRM
- reported selectivity at OPRM (calf OPRM; Glick, Maisonneuve et al. 2000): 5 ×
- pKi (calf OPRM; calf receptor, literature): 6.0
- Ki (calf OPRK): 5.1 µM
- pKi (calf OPRK): 5.3
- Ki (OPRK [5]; Table 9 summary column, value of this work): 1.8 µM
- Ki (OPRK [5]; [3H]-U69,593): 1.84 ± 0.12 µM
- EC50 (OPRK [6]): ~16 µM
- Efficacy (inhibition) (OPRK [6]): −100%
- e-coupling (pKi-pEC50) (OPRK [6]): 0.94~
- e-coupling (pKi-pKe) (OPRK [6]): 0.39
- stimulation of [35S]GTPγS binding to OPRK (OPRK [6]): failed to stimulate
- Ki (OPRK [6]; Ke): 2.8 µM and 2.9 µM and 4.3 µM
- Emax (OPRK [6]): < 5%

Compound: C[C@@H](NC(=O)[C@@H](N)Cc1ccc(O)cc1)C(=O)NCC(=O)N(C)[C@@H](Cc1ccccc1)C(=O)NCCO [DAMGO, [D-Ala2, NMe-Phe4, Gly-ol5]-enkephalin]
- ΔpKi = pKi(OPRK) − pKi(OPRM), OPRK Specificity (human OPRK; [11]): <−3

Compound: CCC1CC2CC3c4[nH]c5ccc(OC)cc5c4CCN(C2)C13 (stereo not shown) [Ibogaine, ibogaine, reference compound]
- Ki (human OPRM [3]): 6.92 ± 0.83 µM
- stimulation of the OPRM G-protein pathway (human OPRM [4]): failed to stimulate the OPRM G-protein pathway
- Emax (human OPRM [4]): -2.9%
- Ki (calf OPRM; calf receptor, literature): 11 µM
- pKi (calf OPRM; calf receptor, literature): 5.0
- Ki at OPRD [7]: (OPRD − N.Q.)

Compound: C=C1CC[C@@]2(O)[C@H]3Cc4ccc(O)c5c4[C@@]2(CCN3CC2CC2)[C@H]1O5 [Nalmefene, nalmefene, reference compound]
- Efficacy (inhibition) (OPRK [6]): −65%
- e-coupling (pKi-pEC50) (OPRK [6]): 0.92
- e-coupling (pKi-pKe) (OPRK [6]): 0.23
- own reduced signal level to which rival agonist signal is leveled down (OPRK [6]): 30%
- Emax (OPRK [6]): 35 ± 4.7%

Compound: Oc1ccc2c3c1O[C@H]1c4[nH]c5c(c4C[C@@]4(O)[C@@H](C2)N(CC2CC2)CC[C@]314)C[C@@]1(O)[C@H]2Cc3ccc(O)c4c3[C@@]1(CCN2CC1CC1)[C@H]5O4 [NorBNI, nor-binaltorphimine, reference compound]
- e-coupling (pKi-pKe) (OPRK [8]; inhibitory component): 0.27
- Efficacy (inhibition) (OPRK [8]; inhibitory component against Dynorphin A): −100%
- ΔpKi = pKi(OPRK) − pKi(OPRM), OPRK Specificity (human OPRK; [11]): 2.0
- Efficacy (inhibition) (OPRK [6]): −100%
- e-coupling (pKi-pKe) (OPRK [6]): −0.1

Compound: CC[C@H]1C[C@@H]2C[C@H]3c4[nH]c5ccc(OC6OC(C(=O)O)C(O)C(O)C6O)cc5c4CCN(C2)[C@@H]13 (stereo partly shown) [Noribogaine glucuronide, noribogaine glucuronide]
- proportion of noribogaine glucuronide Cmax and AUC relative to noribogaine ([9]; 30 mg and 60 mg dose groups): 3-4%
- AUC0-216 [9, 12]: 25.7 (9.1) ng · hr/ml
- AUC0-∞ [9, 12]: 25.8 (9.3) ng · hr/ml
- Cmax [9, 12]: 1.8 (0.6) ng/ml
- Tmax [9, 12]: 3.0 (0.6) hr
- t1/2 [9, 12]: 20.6 (4.9) hr
- AUC0-216 [9, 13]: 65.0 (21.5) ng · hr/ml
- AUC0-∞ [9, 13]: 67.1 (21.9) ng · hr/ml
- Cmax [9, 13]: 4.1 (1.2) ng/ml
- Tmax [9, 13]: 3.8 (1.2) hr
- t1/2 [9, 13]: 23.1 (3.0) hr
- time by which detected in all subjects ([9]; plasma, 30 mg and 60 mg noribogaine): ≤ 0.75 h
- Mean half-life ([9]; plasma, across dose groups): 21 to 23 h
- time of peak concentrations after oral noribogaine dosing ([9]; plasma, across dose groups): 3 to 4 h

Compound: [Met]-Enkephalin
- Efficacy (human OPRM [10]): 100%
- ΔpKi = pKi(OPRK) − pKi(OPRM), OPRK Specificity (human OPRK): <−3
- Efficacy (human OPRM [1]): ~95%
